From US8518896B2, “Treatment of cancers of the blood using selected glycomimetic compounds” (Glycomimetics, Inc., priority 2008, dated 2013)

Test system: neutrophils
Details: mice; 5-FU 150 mg/kg i.p. or cyclophosphamide 300 mg/kg i.p.; lasts for at least one week
Experimental: At varying time points after treatment, blood samples are taken from the mice and analyzed for different cell types including neutrophils.
As diagrammed in FIG. 10, mice are treated with Compound #2 for 14 days by intraperitoneal injections (50 mg/kg) twice a day. On day 12 within this treatment period, a cohort of mice receives an injection of a chemotherapeutic drug; either 5-fluorouracil (150 mg/kg i.p.) or cyclophosphamide (300 mg/kg i.p.). On the third day after treatment with Compound #2, blood is obtained by cardiac puncture from one cohort of mice to determine a complete blood count (CBC). Other cohorts of mice are bled and analyzed (CBC) on days 5, 7, 9 and 15 after Compound #2 treatment.

O=P1(N(CCCl)CCCl)NCCCO1 (stereo not shown) [cyclophosphamide]
neutropenia caused by the chemotherapeutic drug: severe neutropenia
